Measurements: ChEMBL document CHEMBL3885861, “Open TG-GATES”

Species: Rattus norvegicus
Experiment: Open TG-GATES - Regimen: Single
Assay type: toxicity, organism-based, Sprague-Dawley
Design: regimen Single, gender Male, age 6 weeks
Details: in vivo, po, 15 mg/kg, route gavage, dose level High; for APTT / Bas / Eos / Fbg / Hb / Ht / Lym / MCH / MCHC / MCV / Mono / Neu / PT / Plat / RBC / Ret / WBC: tissue Blood; for KIDNEY_L / KIDNEY_R / KIDNEY_TOTAL: tissue Kidney; for ALP / ALT / AST / CRE / Cl / DBIL / GLC / IP / K / LDH / Na / PL / RALB / TBIL / TC / TG / TP / gamma-GTP: tissue Plasma

SMILES: COc1cc2c(c(OC)c1OC)-c1ccc(OC)c(=O)cc1[C@@H](NC(C)=O)CC2 [COLCHICINE]
- TERMINAL_BW (3 h): 219.9 g
- APTT (3 h): 17.2 s
- Bas (3 h): 0%
- Eos (3 h): 0.8%
- Fbg (3 h): 212.4 mg/dL
- Hb (3 h): 13.4 g/dL
- Ht (3 h): 40.8%
- Lym (3 h): 76.2%
- MCH (3 h): 21.9 pg
- MCHC (3 h): 33%
- MCV (3 h): 66.3 fL
- Mono (3 h): 13%
- Neu (3 h): 10%
- PT (3 h): 12.3 s
- Plat (3 h): 111.2 x10_4/uL
- RBC (3 h): 614.8 x10_4/ul
- Ret (3 h): 9.9%
- WBC (3 h): 105.1 x10_2/uL
- KIDNEY_L (3 h): 1 g
- KIDNEY_R (3 h): 1 g
- KIDNEY_TOTAL (3 h): 2 g
- ALP (3 h): 859.4 IU/L
- ALT (3 h): 59.8 IU/L
- AST (3 h): 152.8 IU/L
- CRE (3 h): 0.5 mg/dL
- Cl (3 h): 105.2 meq/L
- DBIL (3 h): 0.03 mg/dL
- GLC (3 h): 184.8 mg/dL
- IP (3 h): 9.3 mg/dL
- K (3 h): 4.6 meq/L
- LDH (3 h): 377.8 IU/L
- Na (3 h): 138.6 meq/L
- PL (3 h): 113.4 mg/dL
- RALB (3 h): 3.7 g/dL
- TBIL (3 h): 0.4 mg/dL
- TC (3 h): 75.2 mg/dL
- TG (3 h): 21.4 mg/dL
- TP (3 h): 5.6 g/dL
- gamma-GTP (3 h): 2.4 IU/L
- TERMINAL_BW (6 h): 220.6 g
- APTT (6 h): 17.3 s
- Bas (6 h): 0%
- Eos (6 h): 0.8%
- Fbg (6 h): 215 mg/dL
- Hb (6 h): 14.5 g/dL
- Ht (6 h): 44.5%
- Lym (6 h): 69.6%
- MCH (6 h): 21.2 pg
- MCHC (6 h): 32.7%
- MCV (6 h): 65 fL
- Mono (6 h): 6.2%
- Neu (6 h): 24%
- PT (6 h): 14.1 s
- Plat (6 h): 109.9 x10_4/uL
- RBC (6 h): 684.6 x10_4/ul
- Ret (6 h): 8.3%
- WBC (6 h): 68.3 x10_2/uL
- KIDNEY_L (6 h): 1 g
- KIDNEY_R (6 h): 1 g
- KIDNEY_TOTAL (6 h): 2 g
- ALP (6 h): 1105.6 IU/L
- ALT (6 h): 257.8 IU/L
- AST (6 h): 651.4 IU/L
- CRE (6 h): 0.5 mg/dL
- Cl (6 h): 104.2 meq/L
- DBIL (6 h): 0.1 mg/dL
- GLC (6 h): 174.8 mg/dL
- IP (6 h): 9.5 mg/dL
- K (6 h): 4.8 meq/L
- LDH (6 h): 1373 IU/L
- Na (6 h): 139.8 meq/L
- PL (6 h): 101.2 mg/dL
- RALB (6 h): 3.7 g/dL
- TBIL (6 h): 0.5 mg/dL
- TC (6 h): 66.8 mg/dL
- TG (6 h): 12.2 mg/dL
- TP (6 h): 5.5 g/dL
- gamma-GTP (6 h): 2 IU/L
- TERMINAL_BW (9 h): 217.2 g
- APTT (9 h): 17.8 s
- Bas (9 h): 0%
- Eos (9 h): 0.6%
- Fbg (9 h): 203.8 mg/dL
- Hb (9 h): 14.9 g/dL
- Ht (9 h): 45.2%
- Lym (9 h): 50.6%
- MCH (9 h): 21.1 pg
- MCHC (9 h): 32.8%
- MCV (9 h): 64.3 fL
- Mono (9 h): 12.2%
- Neu (9 h): 36.8%
- PT (9 h): 14.8 s
- Plat (9 h): 99 x10_4/uL
- RBC (9 h): 704.2 x10_4/ul
- Ret (9 h): 7.7%
- WBC (9 h): 52.6 x10_2/uL
- KIDNEY_L (9 h): 1 g
- KIDNEY_R (9 h): 1 g
- KIDNEY_TOTAL (9 h): 1.9 g
- ALP (9 h): 1469.6 IU/L
- ALT (9 h): 302.8 IU/L
- AST (9 h): 623.8 IU/L
- CRE (9 h): 0.5 mg/dL
- Cl (9 h): 101.8 meq/L
- DBIL (9 h): 0.3 mg/dL
- GLC (9 h): 171 mg/dL
- IP (9 h): 8.1 mg/dL
- K (9 h): 4.7 meq/L
- LDH (9 h): 1091.2 IU/L
- Na (9 h): 137 meq/L
- PL (9 h): 126 mg/dL
- RALB (9 h): 3.8 g/dL
- TBIL (9 h): 0.6 mg/dL
- TC (9 h): 86.2 mg/dL
- TG (9 h): 9.4 mg/dL
- TP (9 h): 5.5 g/dL
- gamma-GTP (9 h): 2 IU/L
- TERMINAL_BW (24 h): 208.7 g
- APTT (24 h): 18 s
- Bas (24 h): 0%
- Eos (24 h): 0.6%
- Fbg (24 h): 171 mg/dL
- Hb (24 h): 15.6 g/dL
- Ht (24 h): 47.7%
- Lym (24 h): 73.4%
- MCH (24 h): 20.5 pg
- MCHC (24 h): 32.9%
- MCV (24 h): 62.4 fL
- Mono (24 h): 9.8%
- Neu (24 h): 16.2%
- PT (24 h): 12.5 s
- Plat (24 h): 121.1 x10_4/uL
- RBC (24 h): 763.8 x10_4/ul
- Ret (24 h): 6.3%
- WBC (24 h): 78.2 x10_2/uL
- KIDNEY_L (24 h): 1 g
- KIDNEY_R (24 h): 1 g
- KIDNEY_TOTAL (24 h): 2 g
- ALP (24 h): 1599.2 IU/L
- ALT (24 h): 160.4 IU/L
- AST (24 h): 350.8 IU/L
- CRE (24 h): 0.6 mg/dL
- Cl (24 h): 104 meq/L
- DBIL (24 h): 0.1 mg/dL
- GLC (24 h): 176 mg/dL
- IP (24 h): 7.8 mg/dL
- K (24 h): 5.2 meq/L
- LDH (24 h): 172.4 IU/L
- Na (24 h): 136.8 meq/L
- PL (24 h): 116.4 mg/dL
- RALB (24 h): 3.3 g/dL
- TBIL (24 h): 0.5 mg/dL
- TC (24 h): 60.8 mg/dL
- TG (24 h): 16.8 mg/dL
- TP (24 h): 5.1 g/dL
- gamma-GTP (24 h): 1.4 IU/L
